Legend:
Assay type in all cases: in vivo
[1] = system: large crabgrass (Digitaria sanguinalis); assay: Test A pre-/postemergence plant response
In short: (§1)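 Scores reflect visual plant injury relative to untreated controls on a 0–100 scale, recorded approximately 10 days after simultaneous preemergence soil spraying and postemergence spraying of one- to two-leaf seedlings grown in loam–sand.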

corn (Zea mays) = assay: Test A pre-/postemergence plant response
In short: as §1

[2] = system: morningglory (Ipomoea coccinea); assay: Test A pre-/postemergence plant response
In short: as §1

[3] = system: velvetleaf (Abutilon theophrasti); assay: Test A pre-/postemergence plant response
In short: as §1

[4] = system: pigweed (Amaranthus retroflexus); assay: Test A pre-/postemergence plant response
In short: as §1

[5] = system: wheat (Triticum aestivum); assay: Test A pre-/postemergence plant response
In short: as §1

[6] = system: barnyardgrass (Echinochloa crus-galli); assay: Test A pre-/postemergence plant response
In short: as §1

[7] = system: giant foxtail (Setaria faberi); assay: Test A pre-/postemergence plant response
In short: as §1

[8] = system: blackgrass (Alopecurus myosuroides); assay: Test B pre-/postemergence plant response
In short: (§2)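 Seeds were sown and sprayed preemergence, while plants at 2 to 18 cm (1- to 4-leaf stage) got postemergence sprays. Compounds were formulated in a non-phytotoxic solvent mixture with surfactant. After 13 to 15 days in a greenhouse, injury was rated visually against untreated controls, 0 (no effect) to 100 (complete control).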

[9] = system: morningglory (Ipomoea coccinea); assay: Test B pre-/postemergence plant response; conditions: for Morningglory plant response rating: 8 g ai/ha
In short: as §2

[10] = system: lambsquarters (Chenopodium album); assay: Test B pre-/postemergence plant response; conditions: for Lambsquarters plant response rating: 8 g ai/ha
In short: as §2

[11] = Postemergence, 125 g ai/ha, 0 to 100 scale, 0 no effect, 100 complete control
[12] = Postemergence, 500 g ai/ha, 0 to 100 scale, 0 no effect, 100 complete control
[13] = Preemergence, 125 g ai/ha, 0 to 100 scale (0 no effect, 100 complete control)
[14] = Preemergence, 500 g ai/ha, 0 to 100 scale (0 no effect, 100 complete control)
[15] = 250 g ai/ha, preemergence, 0-100 scale
[16] = Postemergence, 31 g ai/ha, scale 0 to 100, 0 no effect, 100 complete control
[17] = Postemergence, 62 g ai/ha, scale 0 to 100
[18] = Postemergence, 125 g ai/ha, scale 0 to 100
[19] = Postemergence, 250 g ai/ha, scale 0 to 100
[20] = Preemergence, 31 g ai/ha, 0 to 100 scale, 0 no effect, 100 complete control
[21] = Preemergence, 62 g ai/ha, scale 0 to 100
[22] = Preemergence, 125 g ai/ha, scale 0 to 100
[23] = Preemergence, 250 g ai/ha, scale 0 to 100
[24] = Postemergence, 31 g ai/ha, 0 to 100 scale, 0 no effect, 100 complete control
[25] = Preemergence, 31 g ai/ha, 0 to 100 scale, 0 is no effect, 100 is complete control
[26] = Postemergence, 16 g ai/ha, scale 0 to 100
[27] = Postemergence, 62 g ai/ha, scale 0 to 100, 0 no effect, 100 complete control
[28] = Preemergence, 16 g ai/ha, scale 0 to 100 (0 no effect, 100 complete control)

CCc1cc(-c2ccc(C(F)(F)F)cc2)nn1-c1c(O)c(C)nn(C)c1=O [Compound 16]
Plant response rating, Crabgrass, Large [1, 11]: 90
Plant response rating, Crabgrass, Large [1, 12]: 100
Plant response rating, Crabgrass, Large [1, 13]: 90
Plant response rating, Crabgrass, Large [1, 14]: 100
Plant response rating, Corn (corn (Zea mays); [11]): 90
Plant response rating, Corn (corn (Zea mays); [12]): 100
Plant response rating, Corn (corn (Zea mays); [13]): 70
Plant response rating, Corn (corn (Zea mays); [14]): 90
Plant response rating, Morningglory [2, 11]: 0
Plant response rating, Morningglory [2, 12]: 0
Plant response rating, Morningglory [2, 13]: 0
Plant response rating, Morningglory [2, 14]: 0
Plant response rating, Velvetleaf [3, 11]: 0
Plant response rating, Velvetleaf [3, 12]: 0
Plant response rating, Velvetleaf [3, 13]: 0
Plant response rating, Velvetleaf [3, 14]: 0
Plant response rating, Pigweed [4, 11]: 0
Plant response rating, Pigweed [4, 12]: 0
Plant response rating, Pigweed [4, 13]: 0
Plant response rating, Pigweed [4, 14]: 0
Plant response rating, Wheat [5, 11]: 70
Plant response rating, Wheat [5, 12]: 90
Plant response rating, Wheat [5, 13]: 70
Plant response rating, Wheat [5, 14]: 100
Plant response rating, Barnyardgrass [6, 11]: 90
Plant response rating, Barnyardgrass [6, 12]: 100
Plant response rating, Barnyardgrass [6, 13]: 100
Plant response rating, Barnyardgrass [6, 14]: 100
Plant response rating, Foxtail, Giant [7, 11]: 100
Plant response rating, Foxtail, Giant [7, 12]: 100
Plant response rating, Foxtail, Giant [7, 13]: 100
Plant response rating, Foxtail, Giant [7, 14]: 100
Blackgrass plant response rating [8, 15]: 100
Plant response rating, Blackgrass [8, 16]: 98
Plant response rating, Blackgrass [8, 17]: 100
Plant response rating, Blackgrass [8, 18]: 100
Plant response rating, Blackgrass [8, 19]: 100
Plant response rating, Blackgrass [8, 20]: 100
Plant response rating, Blackgrass [8, 21]: 100
Plant response rating, Blackgrass [8, 22]: 100
Plant response rating, Morningglory [9, 16]: 0
Plant response rating, Morningglory [9, 17]: 0
Plant response rating, Morningglory [9, 18]: 0
Plant response rating, Morningglory [9, 19]: 0
Plant response rating, Morningglory [9, 20]: 0
Plant response rating, Morningglory [9, 21]: 0
Plant response rating, Morningglory [9, 22]: 0
Plant response rating, Morningglory [9, 23]: 0
Plant response rating, Lambsquarters [10, 16]: 0
Plant response rating, Lambsquarters [10, 17]: 0
Plant response rating, Lambsquarters [10, 18]: 0
Plant response rating, Lambsquarters [10, 19]: 0

5-[3-(4-chlorophenyl)-5-methyl-1H-pyrazol-1-yl]-1,6-dihydro-1-methyl-6-oxo-4-pyridazinyl-1-methylethyl carbonate [Compound 7]
Plant response rating, Crabgrass, Large [1, 11]: 80
Plant response rating, Crabgrass, Large [1, 12]: 90
Plant response rating, Crabgrass, Large [1, 13]: 100
Plant response rating, Crabgrass, Large [1, 14]: 100
Plant response rating, Corn (corn (Zea mays); [11]): 50
Plant response rating, Corn (corn (Zea mays); [12]): 100
Plant response rating, Corn (corn (Zea mays); [13]): 60
Plant response rating, Corn (corn (Zea mays); [14]): 90
Plant response rating, Morningglory [2, 11]: 0
Plant response rating, Morningglory [2, 12]: 20
Plant response rating, Morningglory [2, 13]: 20
Plant response rating, Morningglory [2, 14]: 20
Plant response rating, Velvetleaf [3, 11]: 20
Plant response rating, Velvetleaf [3, 12]: 40
Plant response rating, Velvetleaf [3, 13]: 0
Plant response rating, Velvetleaf [3, 14]: 30
Plant response rating, Pigweed [4, 11]: 0
Plant response rating, Pigweed [4, 12]: 0
Plant response rating, Pigweed [4, 13]: 0
Plant response rating, Pigweed [4, 14]: 0
Plant response rating, Wheat [5, 11]: 40
Plant response rating, Wheat [5, 12]: 60
Plant response rating, Wheat [5, 13]: 60
Plant response rating, Wheat [5, 14]: 80
Plant response rating, Barnyardgrass [6, 11]: 80
Plant response rating, Barnyardgrass [6, 12]: 100
Plant response rating, Barnyardgrass [6, 13]: 100
Plant response rating, Barnyardgrass [6, 14]: 100
Plant response rating, Foxtail, Giant [7, 11]: 90
Plant response rating, Foxtail, Giant [7, 12]: 90
Plant response rating, Foxtail, Giant [7, 13]: 100
Plant response rating, Foxtail, Giant [7, 14]: 100
Blackgrass plant response rating [8, 15]: 100
Plant response rating, Blackgrass [8, 16]: 85
Plant response rating, Blackgrass [8, 17]: 90
Plant response rating, Blackgrass [8, 18]: 100
Plant response rating, Blackgrass [8, 19]: 100
Plant response rating, Blackgrass [8, 20]: 70
Plant response rating, Blackgrass [8, 21]: 85
Plant response rating, Blackgrass [8, 22]: 100
Plant response rating, Morningglory [9, 16]: 0
Plant response rating, Morningglory [9, 17]: 0
Plant response rating, Morningglory [9, 18]: 0
Plant response rating, Morningglory [9, 19]: 0
Plant response rating, Morningglory [9, 20]: 0
Plant response rating, Morningglory [9, 21]: 0
Plant response rating, Morningglory [9, 22]: 0
Plant response rating, Morningglory [9, 23]: 0
Plant response rating, Lambsquarters [10, 16]: 0
Plant response rating, Lambsquarters [10, 17]: 0
Plant response rating, Lambsquarters [10, 18]: 0
Plant response rating, Lambsquarters [10, 19]: 10
Plant response rating, Lambsquarters [10, 20]: 30
Plant response rating, Lambsquarters [10, 21]: 30
Plant response rating, Lambsquarters [10, 22]: 90
Plant response rating, Lambsquarters [10, 23]: 100

Cc1cc(-c2ccc(C(F)(F)F)c(F)c2)nn1-c1c(O)c(C(F)(F)F)nn(C)c1=O [Compound 44]
Plant response rating, Crabgrass, Large [1, 24]: 50
Plant response rating, Crabgrass, Large [1, 11]: 100
Plant response rating, Crabgrass, Large [1, 25]: 20
Plant response rating, Crabgrass, Large [1, 13]: 100
Plant response rating, Corn (corn (Zea mays); [24]): 70
Plant response rating, Corn (corn (Zea mays); [11]): 90
Plant response rating, Corn (corn (Zea mays); [25]): 30
Plant response rating, Corn (corn (Zea mays); [13]): 80
Plant response rating, Morningglory [2, 24]: 0
Plant response rating, Morningglory [2, 11]: 0
Plant response rating, Morningglory [2, 25]: 0
Plant response rating, Morningglory [2, 13]: 0
Plant response rating, Velvetleaf [3, 24]: 0
Plant response rating, Velvetleaf [3, 11]: 0
Plant response rating, Velvetleaf [3, 25]: 0
Plant response rating, Velvetleaf [3, 13]: 0
Plant response rating, Pigweed [4, 24]: 0
Plant response rating, Pigweed [4, 11]: 0
Plant response rating, Pigweed [4, 25]: 0
Plant response rating, Pigweed [4, 13]: 0
Plant response rating, Wheat [5, 24]: 70
Plant response rating, Wheat [5, 11]: 80
Plant response rating, Wheat [5, 25]: 40
Plant response rating, Wheat [5, 13]: 80
Plant response rating, Barnyardgrass [6, 24]: 100
Plant response rating, Barnyardgrass [6, 11]: 100
Plant response rating, Barnyardgrass [6, 25]: 80
Plant response rating, Barnyardgrass [6, 13]: 100
Plant response rating, Foxtail, Giant [7, 24]: 90
Plant response rating, Foxtail, Giant [7, 11]: 100
Plant response rating, Foxtail, Giant [7, 25]: 80
Plant response rating, Foxtail, Giant [7, 13]: 100
Blackgrass plant response rating ([8]; 8 g ai/ha, postemergence, 0-100 scale): 85
Plant response rating, Blackgrass [8, 26]: 90
Plant response rating, Blackgrass [8, 16]: 98
Plant response rating, Blackgrass [8, 27]: 98
Plant response rating, Blackgrass [8, 28]: 100
Plant response rating, Blackgrass [8, 20]: 100
Plant response rating, Blackgrass [8, 21]: 100
Blackgrass plant response rating ([8]; Preemergence, 8 g ai/ha, scale 0 to 100): 90
Morningglory plant response rating ([9]; postemergence, 0-100 scale): 0
Plant response rating, Morningglory [9, 26]: 0
Plant response rating, Morningglory [9, 16]: 0
Plant response rating, Morningglory [9, 27]: 0
Plant response rating, Morningglory [9, 28]: 0
Plant response rating, Morningglory [9, 21]: 0
Morningglory plant response rating ([9]; Preemergence, scale 0 to 100): 0
Lambsquarters plant response rating ([10]; postemergence, 0-100 scale): 0
Plant response rating, Lambsquarters [10, 26]: 0
Plant response rating, Lambsquarters [10, 16]: 0
Plant response rating, Lambsquarters [10, 27]: 0
Plant response rating, Lambsquarters [10, 28]: 0
Plant response rating, Lambsquarters [10, 20]: 0
Plant response rating, Lambsquarters [10, 21]: 0
Lambsquarters plant response rating ([10]; Preemergence, scale 0 to 100): 0

— US20100267561A1, “HERBICIDAL PYRIDAZINONE DERIVATIVES” (priority 2007, published 2010)
